Reference: article PMC10586451, “Design, Synthesis, Pharmacological Activities, Structure–Activity Relationship, and In Silico Studies of Novel 5-Substituted-2-(morpholinoimino)-thiazolidin-4-ones” (ACS Omega, 2023)
Several values for one entry are separate records, joined by “and”; a condition that tells them apart may be missing. Identical values can stand only once. Like-named read-outs stand apart in the source and are kept apart here.

Legend:
[1] = ABTS cation radical scavenging assay; conditions: mean ± SEM of three parallel measurements
Experimental: (§1) DMSO solutions of four different concentrations (12.5, 25, 50, and 100 μM) of the synthesized compound 1–26 were prepared. DMSO was used as a control, while BHA and α-TOC were used as antioxidant standards.

[2] = β-carotene-linoleic acid assay (antioxidant); conditions: mean ± SEM of three parallel measurements
Experimental: as §1

[3] = DPPH radical scavenging assay; conditions: mean ± SEM of three parallel measurements
Experimental: as §1

[4] = CUPRAC assay (Cu(II) reducing power); conditions: concentration at 0.500 absorbance; mean ± SEM
Experimental: as §1

urease = urease (Canavalia ensiformis, UniProt P07374); experiment: biochemical
Chain of urease (P07374 whole entry, looked up): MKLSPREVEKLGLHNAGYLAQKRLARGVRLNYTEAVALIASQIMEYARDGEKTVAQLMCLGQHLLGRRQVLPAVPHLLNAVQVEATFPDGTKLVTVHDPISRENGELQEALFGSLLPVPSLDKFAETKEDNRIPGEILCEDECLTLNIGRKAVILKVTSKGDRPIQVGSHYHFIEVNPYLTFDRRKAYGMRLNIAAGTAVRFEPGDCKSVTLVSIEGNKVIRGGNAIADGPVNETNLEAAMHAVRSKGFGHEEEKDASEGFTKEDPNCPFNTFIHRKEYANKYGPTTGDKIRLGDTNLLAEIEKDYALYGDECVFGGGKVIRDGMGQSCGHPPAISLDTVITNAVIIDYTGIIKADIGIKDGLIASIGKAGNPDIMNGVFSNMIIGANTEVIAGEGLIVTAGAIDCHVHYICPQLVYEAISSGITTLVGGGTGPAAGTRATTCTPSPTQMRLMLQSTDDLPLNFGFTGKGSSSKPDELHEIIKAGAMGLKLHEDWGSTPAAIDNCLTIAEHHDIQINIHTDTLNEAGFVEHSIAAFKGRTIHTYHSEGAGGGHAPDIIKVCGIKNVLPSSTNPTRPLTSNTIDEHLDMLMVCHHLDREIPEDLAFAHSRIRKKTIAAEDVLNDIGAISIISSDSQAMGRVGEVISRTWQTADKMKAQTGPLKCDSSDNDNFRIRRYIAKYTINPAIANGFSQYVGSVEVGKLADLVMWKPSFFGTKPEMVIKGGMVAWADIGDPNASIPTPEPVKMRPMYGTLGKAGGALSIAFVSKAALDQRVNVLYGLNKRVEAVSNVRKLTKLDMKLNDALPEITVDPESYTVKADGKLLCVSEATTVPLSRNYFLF

tyrosinase = format: biochemical; conditions: mean ± SEM of three parallel measurements
[5] = molecular target: T1, Acetylcholinesterase (AChE) (Electrophorus electricus, UniProt O42275); experiment: biochemical; conditions: for IC50: mean ± SEM of three parallel measurements
T1 construct: Acetylcholinesterase (AChE) from electric eel; from tissue; host or cells: electric eel
T1 sequence (O42275 24-633): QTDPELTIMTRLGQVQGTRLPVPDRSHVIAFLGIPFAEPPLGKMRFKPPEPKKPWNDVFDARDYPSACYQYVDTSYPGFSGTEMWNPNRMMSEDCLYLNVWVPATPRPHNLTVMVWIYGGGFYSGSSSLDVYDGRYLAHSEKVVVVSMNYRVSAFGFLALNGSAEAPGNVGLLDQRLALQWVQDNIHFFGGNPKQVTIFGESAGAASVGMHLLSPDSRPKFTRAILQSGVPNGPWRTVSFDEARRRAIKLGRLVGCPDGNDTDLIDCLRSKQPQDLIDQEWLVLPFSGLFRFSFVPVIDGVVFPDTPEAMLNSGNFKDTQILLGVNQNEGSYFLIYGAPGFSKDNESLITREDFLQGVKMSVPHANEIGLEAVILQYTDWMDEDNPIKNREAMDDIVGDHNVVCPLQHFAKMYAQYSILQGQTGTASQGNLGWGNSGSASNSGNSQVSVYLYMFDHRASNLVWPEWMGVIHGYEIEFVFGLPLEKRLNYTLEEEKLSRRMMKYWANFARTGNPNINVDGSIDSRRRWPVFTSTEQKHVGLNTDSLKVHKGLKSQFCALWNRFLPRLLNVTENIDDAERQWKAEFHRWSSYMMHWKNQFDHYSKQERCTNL
Experimental: (§2) Anticholinesterase activity of all was performed according to the Ellman’s method using a 96-well microplate reader. Acetylcholinesterase (AChE) from electric eel and butyrylcholinesterase (BChE) from horse serum were used. Acetylthiocholine iodide and butyrylthiocholine chloride were utilized as substrates. DTNB (5,50-dithiobis(2-nitrobenzoic) acid was used as a coloring agent to measure the anticholinesterase activity.[43] Measurements were obtained in triplicate.

[6] = molecular target: T2, butyrylcholinesterase (BChE) (Equus caballus, UniProt P81908); experiment: biochemical; conditions: for IC50: mean ± SEM of three parallel measurements
T2 construct: butyrylcholinesterase (BChE) from horse serum; from tissue; host or cells: horse serum
T2 sequence (P81908 whole entry): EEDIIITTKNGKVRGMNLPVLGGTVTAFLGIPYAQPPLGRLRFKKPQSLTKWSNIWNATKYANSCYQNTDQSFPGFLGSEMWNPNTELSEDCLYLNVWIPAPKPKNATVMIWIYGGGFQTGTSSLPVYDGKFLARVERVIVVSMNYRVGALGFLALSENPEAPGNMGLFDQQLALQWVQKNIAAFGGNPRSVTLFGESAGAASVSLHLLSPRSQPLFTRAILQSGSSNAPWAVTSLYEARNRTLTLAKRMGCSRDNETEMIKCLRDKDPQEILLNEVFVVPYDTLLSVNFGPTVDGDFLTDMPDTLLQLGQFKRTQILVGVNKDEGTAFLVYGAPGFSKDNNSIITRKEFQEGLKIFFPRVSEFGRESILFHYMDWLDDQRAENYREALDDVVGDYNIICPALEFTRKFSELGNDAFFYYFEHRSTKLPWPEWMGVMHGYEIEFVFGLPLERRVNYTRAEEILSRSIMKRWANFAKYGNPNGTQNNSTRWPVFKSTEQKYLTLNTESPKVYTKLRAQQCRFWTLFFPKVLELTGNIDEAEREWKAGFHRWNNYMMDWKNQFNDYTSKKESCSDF
Experimental: as §2

[7] = urease activity IC50, mean ± SEM of three parallel measurements
[8] = Selectivity index: IC50 for BChE/IC50 for AChE
[9] = Selectivity index: IC50 for AChE/IC50 for BChE

## O=C1C(=Cc2ccc(Br)cc2)SC(=NN2CCOCC2)N1c1ccccc1 [Compound 4, 5-(4-Bromobenzylidene)-2-(morpholinoimino)-3-phenylthiazolidine-4-one]
[1]
  IC50: 23.7 ± 0.66 µM
[2]
  IC50: 34.7 ± 0.15 µM
[3]
  IC50: 40.2 ± 0.77 µM
[4]
  CUPRAC assay A0.5: 21.18 ± 0.00 µM
urease; [7]
  IC50: 56.11 ± 0.22 µM
tyrosinase
  IC50: 28400 ± 900 µM
[5]; [8]
  SI for AChE: 1.43
[5]
  IC50: 27.7 ± 0.51 µM
[6]; [9]
  SI for BChE: 0.70
[6]
  IC50: 39.6 ± 0.74 µM

## O=C1C(=Cc2ccc[nH]2)SC(=NN2CCOCC2)N1c1ccccc1 [Compound 18, 5-((1H-Pyrrol-2-yl)methylene)-2-(morpholinoimino)-3-phenylthiazolidin-4-one]
[1]
  IC50: 31.04 ± 0.17 µM
[2]
  IC50: 33.62 ± 0.04 µM
[3]
  IC50: 35.07 ± 0.03 µM
[4]
  CUPRAC assay A0.5: 26.60 ± 0.02 µM
urease; [7]
  IC50: 20.2 ± 0.77 µM
tyrosinase
  IC50: 16000 ± 410 µM
[5]; [8]
  SI for AChE: 1.54
[5]
  IC50: 21.4 ± 0.92 µM
[6]; [9]
  SI for BChE: 0.65
[6]
  IC50: 32.9 ± 0.75 µM

## O=C1C(=Cc2nccs2)SC(=NN2CCOCC2)N1c1ccccc1 [Compound 20]
[1]
  IC50: 31.3 ± 0.77 µM
[2]
  IC50: 32.8 ± 0.33 µM
[3]
  IC50: 35.2 ± 0.6 µM
[4]
  CUPRAC assay A0.5: 36.95 ± 0.03 µM
urease; [7]
  IC50: 16.8 ± 0.19 µM
tyrosinase
  IC50: 21400 ± 310 µM
[5]; [8]
  SI for AChE: 1.26
[5]
  IC50: 26.8 ± 0.77 µM
[6]; [9]
  SI for BChE: 0.79
[6]
  IC50: 34.05 ± 0.06 µM

## Cc1cc(C(C)(C)C)c(O)c(C(C)(C)C)c1 [BHT, butylated hydroxytoluene, reference compound]
[1]
  IC50: 2.91 ± 0.55 µM
[2]
  IC50: 2.34 ± 0.09 µM
[3]
  IC50: 55 ± 0.99 µM
[4]
  CUPRAC assay A0.5: 3.80 ± 0.02 µM

## COc1cc(C=C2SC(=NN3CCOCC3)N(c3ccccc3)C2=O)cc(OC)c1OC [Compound 8, 5-(3,4,5-(Trimethoxy)benzylidene)-2-(morpholinoimino)-3-phenylthiazolidin-4-one]
[1]
  IC50: 32.95 ± 0.28 µM
[2]
  IC50: 36.5 ± 0.39 µM
[3]
  IC50: 44.06 ± 0.21 µM
[4]
  CUPRAC assay A0.5: 35.13 ± 0.03 µM
urease; [7]
  IC50: 53.4 ± 0.64 µM
tyrosinase
  IC50: 25700 ± 390 µM
[5]; [8]
  SI for AChE: 1.41
[5]
  IC50: 33.61 ± 0.33 µM
[6]; [9]
  SI for BChE: 0.71
[6]
  IC50: 47.3 ± 0.77 µM

## COc1ccc(C=C2SC(=NN3CCOCC3)N(c3ccccc3)C2=O)cc1OC [Compound 7, 5-(3,4-Dimethoxy-benzylidene)-2-(morpholinoimino)-3-phenylthiazolidin-4-one]
[1]
  IC50: 31.55 ± 0.22 µM
[2]
  IC50: 38.24 ± 0.13 µM
[3]
  IC50: 43.91 ± 0.29 µM
[4]
  CUPRAC assay A0.5: 34.50 ± 0.01 µM
urease; [7]
  IC50: 54.3 ± 0.62 µM
tyrosinase
  IC50: 27720 ± 240 µM
[5]; [8]
  SI for AChE: 1.34
[5]
  IC50: 30.4 ± 0.47 µM
[6]; [9]
  SI for BChE: 0.75
[6]
  IC50: 40.88 ± 0.16 µM

## O=C1C(=Cc2ccc(N3CCCCC3)cc2)SC(=NN2CCOCC2)N1c1ccccc1 [Compound 13, 2-(Morpholinoimino)-3-phenyl-5-(4-(piperidin-1-yl)benzylidene)thiazolidine-4-one]
[1]
  IC50: 27.16 ± 0.06 µM
[2]
  IC50: 20.2 ± 0.14 µM
[3]
  IC50: 29 ± 0.29 µM
[4]
  CUPRAC assay A0.5: 23.66 ± 0.02 µM
urease; [7]
  IC50: 30.3 ± 0.95 µM
tyrosinase
  IC50: 26200 ± 1110 µM
[5]; [8]
  SI for AChE: 1.61
[5]
  IC50: 20 ± 0.37 µM
[6]; [9]
  SI for BChE: 0.62
[6]
  IC50: 32.21 ± 0.11 µM

## O=C1C(=Cc2ccsc2)SC(=NN2CCOCC2)N1c1ccccc1 [Compound 16, 2-(Morpholinoimino)-3-phenyl-5-(thiophen-3-ylmethylene) thiazolidine-4-one]
[1]
  IC50: 35.7 ± 1.61 µM
[2]
  IC50: 31.4 ± 1.01 µM
[3]
  IC50: 36.21 ± 0.17 µM
[4]
  CUPRAC assay A0.5: 16.94 ± 0.01 µM
urease; [7]
  IC50: 42 ± 0.81 µM
tyrosinase
  IC50: 24080 ± 150 µM
[5]; [8]
  SI for AChE: 1.46
[5]
  IC50: 29 ± 1.03 µM
[6]; [9]
  SI for BChE: 0.69
[6]
  IC50: 42.5 ± 0.18 µM

## O=C1C(=Cc2ccc(N3CCOCC3)cc2)SC(=NN2CCOCC2)N1c1ccccc1 [Compound 14, 2-(Morfolinoimino)-3-phenyl-5-(4-(morpholin-1-yl)benzylidene)thiazolidine-4-one]
[1]
  IC50: 30.3 ± 0.36 µM
[2]
  IC50: 26.31 ± 0.03 µM
[3]
  IC50: 33.86 ± 0.11 µM
[4]
  CUPRAC assay A0.5: 27.43 ± 0.00 µM
urease; [7]
  IC50: 26.7 ± 0.52 µM
tyrosinase
  IC50: 8100 ± 220 µM
[5]; [8]
  SI for AChE: 1.34
[5]
  IC50: 19.2 ± 0.61 µM
[6]; [9]
  SI for BChE: 0.75
[6]
  IC50: 25.7 ± 1.05 µM

## O=C1C(=Cc2c[nH]c3ccccc23)SC(=NN2CCOCC2)N1c1ccccc1 [Compound 24, 5-((1H-Indol-3-yl)methylene)-2-(morpholinoimino)-3-phenylthiazolidin-4-one]
[1]
  IC50: 30 ± 1.01 µM
[2]
  IC50: 27.73 ± 0.23 µM
[3]
  IC50: 33.24 ± 0.21 µM
[4]
  CUPRAC assay A0.5: 30.04 ± 0.02 µM
urease; [7]
  IC50: 23.6 µM and 22.5 µM
tyrosinase
  IC50: 7210 ± 270 µM
[5]; [8]
  SI for AChE: 1.32
[5]
  IC50: 19.5 ± 0.29 µM
[6]; [9]
  SI for BChE: 0.76
[6]
  IC50: 25.7 ± 0.69 µM

## O=C1C(=Cc2ccco2)SC(=NN2CCOCC2)N1c1ccccc1 [Compound 15, 5-(Furan-2-ylmethylene)-2-(morpholinoimino)-3-phenylthiazolidin-4-one]
[1]
  IC50: 32.2 ± 0.87 µM
[2]
  IC50: 29.7 ± 0.34 µM
[3]
  IC50: 35.05 ± 0.29 µM
[4]
  CUPRAC assay A0.5: 31.24 ± 0.00 µM
urease; [7]
  IC50: 46.4 ± 1.08 µM
tyrosinase
  IC50: 5190 ± 30 µM
[5]; [8]
  SI for AChE: 1.37
[5]
  IC50: 27.4 ± 0.76 µM
[6]; [9]
  SI for BChE: 0.73
[6]
  IC50: 37.6 ± 0.61 µM

## Cc1ccsc1C=C1SC(=NN2CCOCC2)N(c2ccccc2)C1=O [Compound 17, 5-((3-Methylthiophene-2-yl)methylene)-2-(morpholinoimino)-3-phenylthiazolidin-4-one]
[1]
  IC50: 33.2 ± 0.65 µM
[2]
  IC50: 36 ± 0.58 µM
[3]
  IC50: 36 ± 1 µM
[4]
  CUPRAC assay A0.5: 27.65 ± 0.01 µM
urease; [7]
  IC50: 40.22 ± 0.12 µM
tyrosinase
  IC50: 3220 ± 700 µM
[5]; [8]
  SI for AChE: 1.43
[5]
  IC50: 34.8 ± 0.53 µM
[6]; [9]
  SI for BChE: 0.70
[6]
  IC50: 49.8 ± 1.01 µM

## O=C1C(=Cc2ccc(N3CCCC3)cc2)SC(=NN2CCOCC2)N1c1ccccc1 [Compound 12, 2-(Morpholinoimino)-3-phenyl-5-(4-(pyrrolidin-1-yl)benzylidene)thiazolidine-4-one]
[1]
  IC50: 24.7 ± 0.25 µM
[2]
  IC50: 16.2 ± 0.66 µM
[3]
  IC50: 26.1 ± 0.44 µM
[4]
  CUPRAC assay A0.5: 20.77 ± 0.03 µM
urease; [7]
  IC50: 24.2 µM and 23.6 µM
tyrosinase
  IC50: 24800 ± 770 µM
[5]; [8]
  SI for AChE: 1.40
[5]
  IC50: 17.4 ± 0.22 µM
[6]; [9]
  SI for BChE: 0.71
[6]
  IC50: 24.4 ± 0.51 µM

## O=C1C(=Cc2ccccn2)SC(=NN2CCOCC2)N1c1ccccc1 [Compound 21, 2-(Morpholinoimino)-3-phenyl-5-(pyridin-2-ylmethylene)thiazolidin-4-one]
[1]
  IC50: 30.7 ± 0.56 µM
[2]
  IC50: 31.5 ± 0.48 µM
[3]
  IC50: 35.01 ± 0.01 µM
[4]
  CUPRAC assay A0.5: 30.77 ± 0.00 µM
urease; [7]
  IC50: 27.8 ± 0.51 µM
tyrosinase
  IC50: 11200 ± 390 µM
[5]; [8]
  SI for AChE: 1.36
[5]
  IC50: 20.6 ± 1.02 µM
[6]; [9]
  SI for BChE: 0.73
[6]
  IC50: 28.1 ± 0.55 µM

## NC(N)=S [thiourea, reference compound]
urease; mean ± SEM of three parallel measurements, read-out: urease activity IC50
  IC50: 24.2 ± 0.3 µM

## O=C1C(=Cc2ccc(N(CCCl)CCCl)cc2)SC(=NN2CCOCC2)N1c1ccccc1 [Compound 11]
[1]
  IC50: 23.2 ± 0.34 µM
[2]
  IC50: 11.9 ± 1.3 µM
[3]
  IC50: 24.6 ± 0.8 µM
[4]
  CUPRAC assay A0.5: 11.82 ± 0.00 µM
urease; [7]
  IC50: 31.5 ± 0.49 µM
tyrosinase
  IC50: 23400 ± 500 µM
[5]
  SI for AChE: 1.53
  IC50: 21.45 ± 0.06 µM
[6]
  SI for BChE: 0.66
  IC50: 32.8 ± 0.48 µM

## Cc1c(C)c2c(c(C)c1O)CC[C@@](C)(CCC[C@H](C)CCC[C@H](C)CCCC(C)C)O2 [α-TOC, reference compound]
[1]
  IC50: 4.87 ± 0.45 µM
[2]
  IC50: 4.5 ± 0.09 µM
[3]
  IC50: 12.26 ± 0.07 µM
[4]
  CUPRAC assay A0.5: 40.48 ± 0.02 µM
